From US20210330611A1, “THERAPY FOR NEUROLOGICAL DISEASES/DISORDERS” (priority 2020, published 2021) come the findings set out here.

Data set [1] concerns primary rat microglia. Briefly: Cell toxicity (dead cells, size <150 μm2) in LPS assay. As to conditions: for LPS % cell toxicity: primary microglia HTS, LPS stimulation, decreased size (<150 μm^2) as marker of toxicity; for IC50: read-out: Cell Toxicity IC50 (uM) [LPS assay], LPS assay.
Data set [2] is described as follows: in vitro. The settings on record: rat, Cell Toxicity IC50 (uM) [cFib assay].
Data set [3] deals with fibrin- and LPS-induced microglia activation. Briefly: cells. Format: cell-based, rat. As to conditions: for inhibition at 10 µM: Rattus norvegicus.
Data set [4] concerns LPS-induced microglia activation. Kind of data set: Image-based assay of LPS-induced microglia activation (HTS and dose response). Format: cell-based, rat. The settings on record: Rattus norvegicus, Microglia; for inhibition at 10 µM: primary microglia HTS, read-out: LPS % inhibition.
The subject of data set [5] is fibrin-induced microglia activation. Briefly: Image-based assay of fibrin-induced microglia activation (HTS and dose response). The settings on record: for IC50 / inhibition at 10 µM: Rattus norvegicus, Microglia; for inhibition at 10 µM: primary microglia HTS, read-out: Fibrin % inhibition. It counts as cell-based, rat.
Data set [6] in a line: in vitro. The settings on record: rat.
Data set [7] has as its system primary rat microglia. Briefly: Cell toxicity (dead cells, size <150 μm2) in coated fibrin (cFib) assay.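 For Fibrin % cell toxicity: share of dead cells sized under 150 µm2 at 10 µM in fibrin-stimulated microglia HTS.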 As to conditions: primary microglia HTS, fibrin stimulation; decreased size (<150 μm^2) as marker of toxicity.
The mark [8] stands for this setting: HTS of 1907 compounds, quadrant by fibrin and LPS inhibition.
[9] abbreviates: Microglia, Table 3, read-out: Cherry-picked Hit (Suppl. Table 7).
Where [10] appears, read: Microglia, HTS hit classification, read-out: Hit.
Setting [11] is: quadrant by fibrin and LPS inhibition in HTS of 1907 compounds.
The mark [12] stands for this setting: 48 h, Table 1, dose response 0.001-20 μM, triplicates, primary rat microglia, 48 h, read-out: LPS IC50.
The mark [13] stands for this setting: 48 h, LPS stimulation, increased cell size (>800 μm^2) as marker of activation.
Where [14] appears, read: LPS-induced microglia activation, dose response, read-out: LPS IC50 (uM) (Suppl. Table 7).
[15] abbreviates: Table 3, read-out: LPS IC50 (uM) (Suppl. Table 7).
Setting [16] is: dose response, LPS-induced microglia activation, read-out: LPS IC50.
[17] abbreviates: 48 h, Table 1, dose response 0.001-20 μM, triplicates, primary rat microglia, 48 h, read-out: Fibrin IC50.
[18] abbreviates: Table 3, read-out: Fibrin IC50 (uM) (Suppl. Table 7).
Where [19] appears, read: dose response, fibrin-induced microglia activation, read-out: Fibrin IC50.
Setting [20] is: fibrin-induced microglia activation, dose response, read-out: Fibrin IC50 (uM) (Suppl. Table 7).
[21] abbreviates: fibrin stimulation, increased cell size (>800 μm^2) as marker of activation.
Where [22] appears, read: hit classification in microglia HTS, read-out: Cherry-picked Hit (Suppl. Table 7).

SMILES strings stand for the structures. Like-named read-outs stand apart in the source and are kept apart here.

Broadly, the IC50 is the point on the concentration scale where inhibition reaches its midpoint. Regarding `C=C1C[C@H]2[C@@H]3C=C(C)C4=CC(=O)CC[C@]4(C)[C@H]3CC[C@]2(C)[C@@]1(OC(C)=O)C(C)=O` [Melengestrol acetate, reference compound], the “LPS % cell toxicity” value in data set [1] was 2%. Also, the half-maximal inhibitory concentration (IC50) was more than 20 µM in data set [1]; more than 20 µM in data set [1] (Table 6); more than 20 µM in data set [2] (Table 3); more than 20 µM in data set [2] (cFib assay); more than 20 µM in data set [2] (cFib assay, Table 6); 13 µM in data set [4] (setting [12]). The IC50 in data set [4] (setting [14]) turned out to be 13 µM; in data set [4] (setting [15]), 13 µM; in data set [4] (Table 6, read-out: LPS IC50 (uM) (Suppl. Table 7)) it was 13 µM; in data set [4] (setting [16]), 13 µM; in data set [5] (setting [17]), 0.07 µM; in data set [5] (setting [18]), 0.07 µM. For the same compound, the IC50 is 0.07 µM in data set [5] (Table 6, read-out: Fibrin IC50 (uM) (Suppl. Table 7)); 0.07 µM in data set [5] (setting [19]); 0.07 µM in data set [5] (setting [20]); more than 20 µM in data set [6]. Further, the “Quadrant (FIG. 5b)” value in data set [3] (setting [8]) is “Q2”; in data set [3] (Table 1, screen at 10 μM), “Q2”; in data set [3] (Table 3, screen at 10 μM), “Q2”; in data set [3] (microglia HTS, Table 6), “Q2”; in data set [3] (setting [11]) it was “Q2”. Moreover, the inhibition at 10 µM in data set [3] (setting [9]) was more than 50%; in data set [3] (setting [10]) it was more than 50%; in data set [4] (setting [13]) it was 67%; in data set [5] (setting [21]), 86%. The “Fibrin Selectivity” value in data set [5] was 196; in data set [5] (fibrin vs LPS, Table 6), 196. The “Fibrin Selectivity (LOG10)” value in data set [5] amounted to 2.29; in data set [5] (fibrin vs LPS, LOG10, Table 6) it was 2.29. In addition, the “Fibrin % cell toxicity” value in data set [7] was determined as 2%.

Take `CCCCC1=NC2(CCCC2)C(=O)N1Cc1ccc(-c2ccccc2-c2nnn[nH]2)cc1` [Irbesartan, reference compound]: the “LPS % cell toxicity” value in data set [1] is given as 1%. Moreover, the IC50 in data set [2] (cFib assay), in data set [4] (setting [12]), in data set [4] (setting [14]), in data set [4] (setting [16]), in data set [5] (setting [17]) and in data set [5] (setting [19]) was more than 20 µM each time. The IC50 in data set [5] (setting [20]) and in data set [6] was more than 20 µM each time. Also, the “Quadrant (FIG. 5b)” value was “Q3” in data set [3] (setting [8]); “Q3” in data set [3] (Table 1, screen at 10 μM); “Q3” in data set [3] (setting [11]). Also, the inhibition at 10 µM in data set [3] (setting [10]) was more than 50%; in data set [3] (setting [22]) it was more than 50%; in data set [4] (setting [13]) it was 31%; in data set [5] (setting [21]) it was 66%. In addition, the “Fibrin % cell toxicity” value in data set [7] is given as 2%.

Regarding `CC(C)c1nc(N(C)S(C)(=O)=O)nc(-c2ccc(F)cc2)c1/C=C/[C@@H](O)C[C@@H](O)CC(=O)O` [Rosuvastatin, reference compound], the “LPS % cell toxicity” value in data set [1] was 4%. Besides, the IC50 was more than 20 µM in data set [1]; 20 µM in data set [2] (Table 3); 20 µM in data set [2] (cFib assay); 3 µM in data set [4] (setting [12]); 3 µM in data set [4] (setting [14]); 3 µM in data set [4] (setting [15]). Also, the half-inhibitory concentration (IC50) is 3 µM in data set [4] (setting [16]); 0.3 µM in data set [5] (setting [17]); 0.3 µM in data set [5] (setting [18]); 0.3 µM in data set [5] (setting [19]); 0.3 µM in data set [5] (setting [20]); more than 20 µM in data set [6]. Moreover, the “Quadrant (FIG. 5b)” value in data set [3] (setting [8]) is reported as “Q2”; in data set [3] (Table 1, screen at 10 μM), “Q2”; in data set [3] (Table 3, screen at 10 μM) it was “Q2”; in data set [3] (setting [11]), “Q2”. Further, the inhibition at 10 µM is more than 50% in data set [3] (setting [9]), more than 50% in data set [3] (setting [10]), 95% in data set [4] (setting [13]) and 93% in data set [5] (setting [21]). For the same compound, the “Fibrin Selectivity” value in data set [5] came to 12. Also, in data set [5], the “Fibrin Selectivity (LOG10)” value was 1.09. In data set [7], the “Fibrin % cell toxicity” value is listed as 2%.

Take `COC(=O)Nc1nc2ccc(Sc3ccccc3)cc2[nH]1` [Fenbendazole, reference compound]: the “LPS % cell toxicity” value in data set [1] came out at 1%. Further, the concentration for half-maximal inhibition (IC50) in data set [2] (cFib assay) was more than 20 µM; in data set [4] (setting [12]), 4 µM; in data set [4] (setting [14]), 4 µM; in data set [4] (setting [16]) it was 4 µM; in data set [5] (setting [17]) it was 3 µM; in data set [5] (setting [19]) it was 3 µM. Also, the results for the half-maximal inhibitory concentration (IC50) in data set [5] (setting [20]) and in data set [6] were 3 µM and more than 20 µM, respectively. In addition, the “Quadrant (FIG. 5b)” value in data set [3] (setting [8]) was “Q3”; in data set [3] (Table 1, screen at 10 μM), “Q3”; in data set [3] (setting [11]), “Q3”. Besides, the inhibition at 10 µM in data set [3] (setting [10]) is more than 50%; in data set [3] (setting [22]), more than 50%; in data set [4] (setting [13]) it was 10%; in data set [5] (setting [21]), 75%. In addition, the “Fibrin % cell toxicity” value in data set [7] is given as 1%.

Consider `NS(=O)(=O)c1cc(C2(O)NC(=O)c3ccccc32)ccc1Cl` (centres unmarked) [Chlorthalidone, reference compound], for which the “LPS % cell toxicity” value in data set [1] is on record as 1%. Moreover, the IC50 in data set [2] (cFib assay), in data set [4] (setting [12]), in data set [4] (setting [14]), in data set [4] (setting [16]), in data set [5] (setting [17]) and in data set [5] (setting [19]) was more than 20 µM each time. In addition, the 50% inhibitory concentration (IC50) in data set [5] (setting [20]) and in data set [6] was more than 20 µM in each case. For the same compound, the “Quadrant (FIG. 5b)” value is listed as “Q3” in data set [3] (setting [8]); “Q3” in data set [3] (Table 1, screen at 10 μM); “Q3” in data set [3] (setting [11]). Further, the inhibition at 10 µM in data set [3] (setting [10]) is more than 50%; in data set [3] (setting [22]), more than 50%; in data set [4] (setting [13]) it was 35%; in data set [5] (setting [21]), 77%. Also, the “Fibrin % cell toxicity” value in data set [7] turned out to be 2%.

On to `C[C@]12C=CC(=O)C=C1CC[C@H]1[C@@H]3C[C@@H](O)[C@](O)(C(=O)CO)[C@@]3(C)C[C@H](O)[C@@]12F` [Triamcinolone, reference compound], for which the concentration for half-maximal inhibition (IC50) in data set [1] is more than 20 µM; in data set [2] (Table 3), more than 20 µM; in data set [2] (cFib assay), more than 20 µM; in data set [4] (setting [12]), 0.4 µM; in data set [4] (setting [14]) it was 0.4 µM; in data set [4] (setting [15]) it was 0.4 µM. Moreover, the IC50 in data set [4] (setting [16]) is 0.4 µM; in data set [5] (setting [17]) it was 0.04 µM; in data set [5] (setting [18]), 0.04 µM; in data set [5] (setting [19]), 0.04 µM; in data set [5] (setting [20]) it was 0.04 µM; in data set [6] it was more than 20 µM. For the same compound, the inhibition at 10 µM in data set [3] (setting [9]) is more than 50%; in data set [3] (setting [10]), more than 50%; in data set [4] (setting [13]) it was 99%; in data set [4] (10 μM, LPS-stimulated, cell size >800 μm^2 as marker of activation) it was -14%; in data set [5] (10 μM, fibrin-stimulated, cell size >800 μm^2 as marker of activation), -2%; in data set [5] (setting [21]), 107%. In addition, the “Quadrant (FIG. 5b)” value in data set [3] (Table 1, screen at 10 μM) is “Q2”; in data set [3] (Table 3, screen at 10 μM), “Q2”; in data set [3] (setting [11]), “Q2”. Besides, the “Fibrin Selectivity” value in data set [5] came to 10. In addition, in data set [5], the “Fibrin Selectivity (LOG10)” value amounted to 1.00.

As to `CC[C@@]1(O)C(=O)OCc2c1cc1n(c2=O)Cc2cc3c([N+](=O)[O-])cccc3nc2-1` [Rubitecan, reference compound], the 50% inhibitory concentration (IC50) in data set [1] is more than 20 µM; in data set [2] (Table 3) it was more than 20 µM; in data set [2] (cFib assay), more than 20 µM; in data set [4] (setting [12]), 9 µM; in data set [4] (setting [14]), 9 µM; in data set [4] (setting [15]), 9 µM. In addition, the half-maximal inhibitory concentration (IC50) in data set [4] (setting [16]) was 9 µM; in data set [5] (setting [17]), 2 µM; in data set [5] (setting [18]), 2 µM; in data set [5] (setting [19]), 2 µM; in data set [5] (setting [20]), 2 µM; in data set [6] it was more than 20 µM. Further, the “Quadrant (FIG. 5b)” value in data set [3] (setting [8]) is recorded as “Q3”; in data set [3] (Table 1, screen at 10 μM) it was “Q3”; in data set [3] (Table 3, screen at 10 μM) it was “Q3”; in data set [3] (setting [11]), “Q3”. Besides, the inhibition at 10 µM in data set [3] (setting [9]) was more than 50%; in data set [3] (setting [10]), more than 50%; in data set [4] (setting [13]), 30%; in data set [5] (setting [21]), 73%.
